Data taken from patent publication US8012499B2, “Anthranilamides for controlling invertebrate pests” (E.I. du Pont de Nemours and Company, priority 2005, dated 2011).

SMILES | melting point
CCN(CC)C(=O)C(=O)c1cc(C)cc(C)c1NC(=O)c1cc(C(F)(F)F)nn1-c1ncccc1Cl [Example 2, 1-(3-chloro-2-pyridinyl)-N-[2-[(diethylamino)oxoacetyl]-4,6-dimethylphenyl]-3-(trifluoromethyl)-1H-pyrazole-5-carboxamide] | 223 to 227 °C
C/N=C(/C(=O)NC)c1cc(Cl)cc(C)c1NC(=O)c1cc(Br)nn1-c1ncccc1Cl [Example 6, 3-bromo-N-[4-chloro-2-methyl-6-[(1E)-2-(methylamino)-1-(methylimino)-2-oxoethyl]phenyl]-1-(3-chloro-2-pyridinyl)-1H-pyrazole-5-carboxamide] | 234 °C (dec.)
CNC(=O)C(=O)c1cc(Cl)cc(C)c1NC(=O)c1cc(Br)nn1-c1ncccc1Cl [Example 7, 3-bromo-N-[4-chloro-2-methyl-6-[(methylamino)oxoacetyl]phenyl]-1-(3-chloro-2-pyridinyl)-1H-pyrazole-5-carboxamide] | 247 °C
